Counter-ions that a name gives are not always drawn.
Tested on: IL-4, IL-13, STAT-6, IFNγ, IL-17a, IL-10 mRNA in prostates of CP1 infected mice
Test: qPCR for cytokine transcripts in prostates
Format: in vivo, C57BL/6 mice
Conditions: late, day 35 post CP1 infection; single drug or combination; CrS 0.5 mg/kg, CeHCl 2.5 mg/kg i.p. daily 10 days
Method: The prostates were harvested from mice after euthanizing as described previously (32). Depending on the experimental design, each prostate sample (separated by lobes) were either fixed in 10% formalin or frozen at −80° C. in TRIzol™ reagent (Life Technologies Corporation, Grand Island, NY, USA), or frozen at −80° C. in 1×RIPA (Santa Cruz Biotechnology, Dallas, TX, USA) containing complete-EDTA protease inhibitor cocktail and phosSTOP phosphatase inhibitor (Millipore-Sigma, Burlington, MA, USA), or processed for tissue digestion for flow cytometry. Formalin samples were further processed and embedded in paraffin. The formalin-fixed paraffin-embedded (FFPE) samples were then sectioned (5 μm sections) and mounted on glass slides for staining. […] Following voiding behavior testing on days 14 or 35 [“early treatment” or “late treatment” groups respectively], mice were euthanized and tissues were prepared as described above. Total RNA was isolated using TRIzol™ reagent (Life Technologies Corporation, Grand Island, NY, USA), and cDNA synthesis, starting with 1 μg of total RNA, was performed with random hexamers using High-Capacity cDNA Reverse Transcription Kit (Life Technologies Corporation, Grand Island, NY, USA) per the manufacturer's instructions. Primers for quantitative PCR (qPCR) were created for the RNA of interest using the NIH online primer blast tool. Reverse Transcription-Quantitative Polymerase Chain Reaction (RT-qPCR) reactions were performed using SsoAdvanced™ universal SYBR® green (Bio-Rad, Hercules, CA, USA) and run on the CFX Connect (Bio-Rad, Hercules, CA, USA) platform. A full table of primer sequences is included in Table 1. The data were analyzed by the 2^−ΔΔCT method (38), and normalized to GAPDH as the housekeeping gene. The data are represented as fold change normalized to the average expression of the gene of interest in their respective control group.

Row | Compound | IL-4 gene expression in prostates of CP1-infected mice (FIG. 12) | IL-13 gene expression in prostates of CP1-infected mice (FIG. 12)
1 | O=C([O-])c1cc(=O)c2c(OCC(O)COc3cccc4oc(C(=O)[O-])cc(=O)c34)cccc2o1.[Na+].[Na+] [CrS, cromolyn sodium] | reduced the gene expression levels of IL-4 and IL-13 to negligible levels | reduced the gene expression levels of IL-4 and IL-13 to negligible levels
2 | O=C(O)COCCN1CCN(C(c2ccccc2)c2ccc(Cl)cc2)CC1 (stereo not shown) [CeHCl, cetirizine di-hydrochloride] | reduced the gene expression levels of IL-4 and IL-13 to a modest but non-significant levels | reduced the gene expression levels of IL-4 and IL-13 to a modest but non-significant levels

— patent US11857531B2, “Combination mast cell inhibition for treatment of BPH/LUTS” (Northwestern University, priority 2020, dated 2024)
